Measured values taken from patent US7074789B2, “Kinase inhibitors” (Amgen Inc., priority 1999, dated 2006).

Columns and labels:
Assay type in all cases: biochemical
[1] = target: T1, AKT (Homo sapiens, UniProt Q9Y243); assay: Kinase inhibition assay (33P transfer), AKT; details: Table 2, kinase inhibition class; read-out: AKT3-1
T1 construct: Kinases are expressed as either kinase domains or full length constructs; made in house
In short: (§1)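 GST/His-tagged kinase (domain or full length; E. coli or baculovirus) + [33P]ATP on plates coated with poly(Glu,Tyr) 4:1 or poly(Arg,Ser) 3:1; incubate, wash 0.5% H3PO4, add scintillant, count.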

[2] = target: T2, ErbB2 (Homo sapiens, UniProt P04626); assay: Kinase inhibition assay (33P transfer), ErbB2; details: read-out: ErbB2-2
T2 construct: Kinases are expressed as either kinase domains or full length constructs; made in house
Excerpt: The inhibitor compounds described herein are screened in the following manner. Kinases suitable for use in the following protocol to determine kinase activity of the compounds described herein include, -but are not limited to: Lck, Lyn, Src, Fyn, Syk, Zap-70, Itk, Tec, Btk, EGFR, ErbB2, Kdr, Flt-1, Flt-3, Tek, c-Met, InsR, and AKT.
Kinases are expressed as either kinase domains or full length constructs fused to glutathione S-transferase (GST) or polyHistidine tagged fusion proteins in either E. colior Baculovirus-High Five expression systems. They are purified to near homogeneity by affinity chromatography essentially as previously described (Lehr et al., 1996; Gish et al., 1995). In some instances, kinases are co-expressed or mixed with purified or partially purified regulatory polypeptides prior to measurement of activity.
Kinase activity and inhibition are measured essentially by established protocols (Braunwalder et al., 1996). Briefly, The transfer of ^33PO4 from ATP to the synthetic substrates poly(Glu, Tyr) 4:1 or poly(Arg, Ser) 3:1 attached to the bioactive surface of microtiter plates serves as the basis to evaluate enzyme activity. After an incubation period, the amount of phosphate transferred is measured by first washing the plate with 0.5% phosphoric acid, adding liquid scintillant, and then counting in a liquid scintillation detector. The IC50 is determined by the concentration of compound that causes a 50% reduction in the amount of […] incorporated onto the substrate bound to the plate.

[3] = target: T3, PDGFRB (Homo sapiens, UniProt P09619); assay: Kinase inhibition assay (33P transfer), PDGFRB; details: read-out: PDGFRB-1
T3 construct: Kinases are expressed as either kinase domains or full length constructs; made in house

[4] = target: T4, Zap-70 (Homo sapiens, UniProt P43403); assay: Kinase inhibition assay (33P transfer), Zap-70; details: read-out: Zap-1
T4 construct: Kinases are expressed as either kinase domains or full length constructs; made in house
T4 sequence (P43403 1-619): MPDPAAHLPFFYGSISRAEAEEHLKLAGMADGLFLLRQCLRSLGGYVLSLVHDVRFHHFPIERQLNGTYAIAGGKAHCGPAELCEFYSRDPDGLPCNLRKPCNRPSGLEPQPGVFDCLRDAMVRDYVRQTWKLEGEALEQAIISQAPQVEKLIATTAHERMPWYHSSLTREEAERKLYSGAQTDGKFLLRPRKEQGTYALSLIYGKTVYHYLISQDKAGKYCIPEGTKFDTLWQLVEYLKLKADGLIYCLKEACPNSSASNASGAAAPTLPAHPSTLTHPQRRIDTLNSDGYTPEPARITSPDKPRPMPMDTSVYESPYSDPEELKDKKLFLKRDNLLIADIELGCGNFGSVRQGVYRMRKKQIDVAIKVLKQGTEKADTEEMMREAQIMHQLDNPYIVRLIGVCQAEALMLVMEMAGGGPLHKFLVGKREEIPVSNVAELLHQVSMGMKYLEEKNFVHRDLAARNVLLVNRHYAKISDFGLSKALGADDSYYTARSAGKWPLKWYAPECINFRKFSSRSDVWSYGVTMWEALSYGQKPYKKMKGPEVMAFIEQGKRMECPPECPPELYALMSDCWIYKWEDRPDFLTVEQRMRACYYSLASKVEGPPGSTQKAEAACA
In short: as §1

[5] = target: T5, EGFR (Homo sapiens, UniProt P00533); assay: Kinase inhibition assay (33P transfer), EGFR; details: Table 2, kinase inhibition class; read-out: EGFR-1
T5 construct: Kinases are expressed as either kinase domains or full length constructs; made in house
In short: (§2)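 Kinase domains or full-length enzymes, GST- or polyHis-tagged, were expressed in E. coli or baculovirus High Five cells and affinity-purified. Transfer of 33PO4 from ATP onto plate-bound poly(Glu,Tyr) 4:1 or poly(Arg,Ser) 3:1 was counted by liquid scintillation after a 0.5% phosphoric acid wash. IC50 = concentration halving incorporation.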

[6] = target: T6, Kdr (Homo sapiens, UniProt P35968); assay: Kinase inhibition assay (33P transfer), Kdr; details: read-out: KDR-1
T6 construct: Kinases are expressed as either kinase domains or full length constructs; made in house
In short: as §1

[7] = target: T7, Itk (Homo sapiens, UniProt Q08881); assay: Kinase inhibition assay (33P transfer), Itk; details: read-out: Itk-1
T7 construct: Kinases are expressed as either kinase domains or full length constructs; made in house
T7 sequence (Q08881 1-620): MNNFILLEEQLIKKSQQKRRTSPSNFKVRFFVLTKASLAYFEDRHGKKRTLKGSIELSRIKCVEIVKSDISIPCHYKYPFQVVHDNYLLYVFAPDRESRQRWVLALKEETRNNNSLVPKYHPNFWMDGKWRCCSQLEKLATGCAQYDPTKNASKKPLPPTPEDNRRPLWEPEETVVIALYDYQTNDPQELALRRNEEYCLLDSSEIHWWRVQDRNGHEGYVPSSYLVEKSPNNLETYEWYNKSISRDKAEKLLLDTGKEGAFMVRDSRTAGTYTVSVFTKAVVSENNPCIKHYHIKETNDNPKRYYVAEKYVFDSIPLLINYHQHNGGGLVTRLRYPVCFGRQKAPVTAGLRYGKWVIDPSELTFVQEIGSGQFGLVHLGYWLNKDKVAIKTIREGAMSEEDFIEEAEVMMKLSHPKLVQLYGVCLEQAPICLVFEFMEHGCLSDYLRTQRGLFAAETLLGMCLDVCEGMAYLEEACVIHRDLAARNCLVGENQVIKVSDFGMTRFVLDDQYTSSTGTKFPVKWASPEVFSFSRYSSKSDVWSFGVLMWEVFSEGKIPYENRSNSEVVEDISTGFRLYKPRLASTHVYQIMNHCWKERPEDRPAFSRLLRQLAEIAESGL
In short: as §2

[8] = target: T8, IGFR-1 (Homo sapiens, UniProt P08069); assay: Kinase inhibition assay, IGFR-1 (Table 2); details: Table 2, kinase inhibition class
T8 construct: Kinases are expressed as either kinase domains or full length constructs; made in house

[9] = target: T9, c-Met (Homo sapiens, UniProt P08581); assay: Kinase inhibition assay (33P transfer), c-Met; details: Table 2, kinase inhibition class; read-out: Met-1
T9 construct: Kinases are expressed as either kinase domains or full length constructs; made in house
In short: as §2

[10] = target: T10, Lck (Homo sapiens, UniProt P06239); assay: Kinase inhibition assay (33P transfer), Lck; details: read-out: Lck-1
T10 construct: Kinases are expressed as either kinase domains or full length constructs; made in house
In short: as §1

[11] = target: T11, Tek (Homo sapiens, UniProt Q02763); assay: Kinase inhibition assay (33P transfer), Tek; details: read-out: Tek-1
T11 construct: Kinases are expressed as either kinase domains or full length constructs; made in house
In short: as §2

T5 sequence (P00533 25-1210, species assumed): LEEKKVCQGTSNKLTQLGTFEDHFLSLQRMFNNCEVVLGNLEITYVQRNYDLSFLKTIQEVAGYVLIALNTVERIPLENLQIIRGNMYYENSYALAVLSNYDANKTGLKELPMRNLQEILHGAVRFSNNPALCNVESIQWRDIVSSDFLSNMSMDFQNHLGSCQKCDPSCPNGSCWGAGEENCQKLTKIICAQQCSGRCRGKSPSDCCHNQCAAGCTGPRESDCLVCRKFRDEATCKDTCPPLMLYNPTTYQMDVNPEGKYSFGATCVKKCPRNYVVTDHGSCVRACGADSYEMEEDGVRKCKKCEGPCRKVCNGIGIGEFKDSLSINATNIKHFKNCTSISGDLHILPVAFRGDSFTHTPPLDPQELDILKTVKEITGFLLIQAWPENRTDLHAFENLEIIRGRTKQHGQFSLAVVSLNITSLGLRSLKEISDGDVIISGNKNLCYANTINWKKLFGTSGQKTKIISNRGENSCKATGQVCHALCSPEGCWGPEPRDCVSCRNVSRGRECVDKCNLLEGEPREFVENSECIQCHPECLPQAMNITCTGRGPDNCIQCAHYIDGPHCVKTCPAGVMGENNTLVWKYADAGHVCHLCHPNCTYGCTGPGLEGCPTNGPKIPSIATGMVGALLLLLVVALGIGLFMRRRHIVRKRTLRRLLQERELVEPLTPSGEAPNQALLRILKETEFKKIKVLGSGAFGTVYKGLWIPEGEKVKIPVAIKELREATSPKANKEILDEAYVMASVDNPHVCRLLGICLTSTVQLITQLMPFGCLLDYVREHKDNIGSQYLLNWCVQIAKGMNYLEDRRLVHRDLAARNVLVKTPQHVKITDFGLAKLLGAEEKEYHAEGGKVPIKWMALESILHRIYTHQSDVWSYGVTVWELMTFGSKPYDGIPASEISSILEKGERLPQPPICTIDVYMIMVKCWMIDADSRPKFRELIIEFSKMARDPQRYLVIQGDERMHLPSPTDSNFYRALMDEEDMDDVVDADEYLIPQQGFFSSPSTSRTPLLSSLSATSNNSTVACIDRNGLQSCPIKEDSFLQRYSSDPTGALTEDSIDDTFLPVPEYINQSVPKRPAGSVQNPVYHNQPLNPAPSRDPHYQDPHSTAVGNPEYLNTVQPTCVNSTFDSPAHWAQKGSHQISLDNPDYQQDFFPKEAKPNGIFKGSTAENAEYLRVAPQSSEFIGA
T3 sequence (P09619 33-1106, species assumed): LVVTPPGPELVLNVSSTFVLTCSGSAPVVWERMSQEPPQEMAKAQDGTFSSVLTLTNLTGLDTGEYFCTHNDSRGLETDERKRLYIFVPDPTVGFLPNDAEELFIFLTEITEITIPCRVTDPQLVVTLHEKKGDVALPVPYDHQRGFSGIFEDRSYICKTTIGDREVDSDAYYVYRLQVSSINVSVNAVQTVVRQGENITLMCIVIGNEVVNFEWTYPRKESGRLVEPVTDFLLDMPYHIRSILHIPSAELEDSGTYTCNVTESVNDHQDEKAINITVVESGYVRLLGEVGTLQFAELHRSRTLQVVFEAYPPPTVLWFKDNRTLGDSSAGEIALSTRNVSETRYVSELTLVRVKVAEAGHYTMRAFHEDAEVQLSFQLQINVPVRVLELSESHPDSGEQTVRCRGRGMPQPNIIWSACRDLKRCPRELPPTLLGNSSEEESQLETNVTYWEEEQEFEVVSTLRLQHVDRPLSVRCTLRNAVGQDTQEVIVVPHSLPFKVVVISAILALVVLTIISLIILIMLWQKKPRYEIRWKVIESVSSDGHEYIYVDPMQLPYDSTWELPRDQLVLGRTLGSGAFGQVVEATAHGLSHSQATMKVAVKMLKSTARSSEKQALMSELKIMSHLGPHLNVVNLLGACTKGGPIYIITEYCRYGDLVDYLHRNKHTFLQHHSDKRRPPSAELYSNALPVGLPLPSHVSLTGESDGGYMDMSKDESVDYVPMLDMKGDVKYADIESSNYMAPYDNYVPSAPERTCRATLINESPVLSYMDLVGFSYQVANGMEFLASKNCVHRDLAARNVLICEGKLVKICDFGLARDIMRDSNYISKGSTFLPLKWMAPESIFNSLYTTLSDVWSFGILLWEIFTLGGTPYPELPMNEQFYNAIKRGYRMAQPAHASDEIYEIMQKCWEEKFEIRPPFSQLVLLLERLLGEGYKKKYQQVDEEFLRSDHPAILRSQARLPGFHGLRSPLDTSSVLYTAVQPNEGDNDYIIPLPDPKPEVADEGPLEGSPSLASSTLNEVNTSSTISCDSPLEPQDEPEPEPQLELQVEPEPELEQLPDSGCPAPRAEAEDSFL
T8 sequence (P08069 31-1367): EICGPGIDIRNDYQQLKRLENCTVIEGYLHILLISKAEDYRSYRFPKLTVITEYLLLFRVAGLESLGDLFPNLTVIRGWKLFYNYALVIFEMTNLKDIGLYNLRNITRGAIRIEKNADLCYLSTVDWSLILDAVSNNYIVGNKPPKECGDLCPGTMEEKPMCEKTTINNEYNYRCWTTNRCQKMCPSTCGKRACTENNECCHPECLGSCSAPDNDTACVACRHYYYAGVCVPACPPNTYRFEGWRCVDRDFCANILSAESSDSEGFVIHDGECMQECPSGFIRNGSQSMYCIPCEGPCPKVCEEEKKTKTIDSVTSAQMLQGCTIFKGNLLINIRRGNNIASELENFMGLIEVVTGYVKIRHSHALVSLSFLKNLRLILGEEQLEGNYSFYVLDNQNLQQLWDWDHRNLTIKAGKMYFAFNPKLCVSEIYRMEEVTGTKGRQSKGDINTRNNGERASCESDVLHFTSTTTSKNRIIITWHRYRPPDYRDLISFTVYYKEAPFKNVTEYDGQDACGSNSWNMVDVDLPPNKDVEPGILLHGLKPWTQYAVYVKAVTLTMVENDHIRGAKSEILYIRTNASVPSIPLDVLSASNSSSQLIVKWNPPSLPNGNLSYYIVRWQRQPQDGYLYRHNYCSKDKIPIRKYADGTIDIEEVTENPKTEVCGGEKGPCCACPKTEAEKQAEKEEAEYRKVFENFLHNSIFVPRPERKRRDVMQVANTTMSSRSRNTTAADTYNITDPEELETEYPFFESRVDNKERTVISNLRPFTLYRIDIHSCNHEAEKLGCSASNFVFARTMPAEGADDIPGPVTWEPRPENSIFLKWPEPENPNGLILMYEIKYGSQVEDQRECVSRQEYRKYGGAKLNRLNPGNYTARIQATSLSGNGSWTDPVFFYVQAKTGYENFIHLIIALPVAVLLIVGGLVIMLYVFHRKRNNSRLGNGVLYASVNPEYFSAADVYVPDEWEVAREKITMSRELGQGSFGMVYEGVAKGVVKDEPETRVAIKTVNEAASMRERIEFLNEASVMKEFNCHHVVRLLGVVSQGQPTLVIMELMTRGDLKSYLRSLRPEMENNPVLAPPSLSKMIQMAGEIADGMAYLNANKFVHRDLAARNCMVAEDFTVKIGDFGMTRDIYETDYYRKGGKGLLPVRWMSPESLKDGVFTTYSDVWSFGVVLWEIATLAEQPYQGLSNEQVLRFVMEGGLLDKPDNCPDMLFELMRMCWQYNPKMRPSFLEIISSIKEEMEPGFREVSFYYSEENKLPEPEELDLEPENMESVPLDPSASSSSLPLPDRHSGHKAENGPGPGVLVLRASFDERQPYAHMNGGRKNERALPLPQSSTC
T10 sequence (P06239 whole entry, species assumed, the tested form may be a part): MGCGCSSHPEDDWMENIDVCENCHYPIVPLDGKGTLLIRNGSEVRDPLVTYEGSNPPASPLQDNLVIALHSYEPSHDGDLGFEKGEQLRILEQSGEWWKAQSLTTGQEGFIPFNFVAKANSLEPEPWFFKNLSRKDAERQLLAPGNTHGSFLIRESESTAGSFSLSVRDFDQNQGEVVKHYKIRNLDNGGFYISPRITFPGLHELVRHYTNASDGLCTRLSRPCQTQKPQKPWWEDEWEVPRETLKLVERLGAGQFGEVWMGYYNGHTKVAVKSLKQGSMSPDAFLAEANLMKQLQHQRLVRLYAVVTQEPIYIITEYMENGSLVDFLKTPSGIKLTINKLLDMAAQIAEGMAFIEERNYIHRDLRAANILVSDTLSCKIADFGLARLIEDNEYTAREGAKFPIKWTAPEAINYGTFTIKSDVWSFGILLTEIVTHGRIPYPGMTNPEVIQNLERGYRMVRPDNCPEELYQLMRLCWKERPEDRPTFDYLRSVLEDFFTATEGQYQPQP
T1 sequence (Q9Y243 whole entry, the tested form may be a part): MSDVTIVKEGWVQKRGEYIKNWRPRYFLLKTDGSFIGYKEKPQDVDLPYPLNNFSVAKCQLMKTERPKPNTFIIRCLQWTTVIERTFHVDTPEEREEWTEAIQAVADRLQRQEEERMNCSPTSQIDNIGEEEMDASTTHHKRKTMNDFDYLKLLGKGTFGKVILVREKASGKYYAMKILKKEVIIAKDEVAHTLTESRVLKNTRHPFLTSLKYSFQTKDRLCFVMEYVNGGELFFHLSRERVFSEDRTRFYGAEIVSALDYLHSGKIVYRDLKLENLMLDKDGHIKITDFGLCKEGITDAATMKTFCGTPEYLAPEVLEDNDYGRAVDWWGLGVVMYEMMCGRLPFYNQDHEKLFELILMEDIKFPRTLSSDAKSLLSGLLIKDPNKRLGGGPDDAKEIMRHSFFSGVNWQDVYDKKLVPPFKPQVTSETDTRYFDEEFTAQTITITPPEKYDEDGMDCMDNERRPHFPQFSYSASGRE

Structure (SMILES) | IC50 [1] [µM] | IC50 [2] [µM] | IC50 [3] [µM] | IC50 [4] [µM] | IC50 [5] [µM] | IC50 [6] [µM] | IC50 [7] [µM] | IC50 [8] [µM] | IC50 [9] [µM] | IC50 [10] [µM] | IC50 [11] [µM]
COc1ccc(Nc2ncnc(N(C)c3ccc(Cl)c(Cl)c3)n2)cc1OC [Compound 758] | > 11.1 | < 0.985 | < 0.985 | > 11.1 | < 0.985 | 0.985 to 5.91 | > 11.1 | 5.91 to 8.61 | < 0.985 | < 0.985 | 
O=C(O)Cc1cccc(Nc2ncnc(-n3c(NCc4ccccn4)nc4ccccc43)n2)c1 [Compound 533] | > 9.95 | > 9.95 | 0.884 to 5.3 | > 9.95 | > 9.95 | < 0.884 | > 9.95 | > 9.95 | > 9.95 | > 9.95 | 
COc1cc(Nc2ncnc(-n3c(NC(C)(C)c4ccccc4)nc4ccccc43)n2)cc(OC)c1OC [Compound 569] | > 8.8 | > 8.8 | < 0.782 | > 8.8 | > 8.8 | < 0.782 | > 8.8 | > 8.8 | > 8.8 | < 0.782 | 
CN(c1cccc(Cl)c1)c1ncnc(Cl)n1 [Compound 701, N-methyl-2-chloro-4(3-chloroanilino)-1,3,5-triazine] | > 17.6 | > 17.6 | > 17.6 | > 17.6 | > 17.6 | > 17.6 | > 17.6 | > 17.6 | > 17.6 | > 17.6 | 
COc1cc(C)c(Nc2ncnc(-n3c(N)nc4ccccc43)n2)cc1OC [Compound 524] | > 11.9 | 6.36 to 9.27 |  | > 11.9 | > 11.9 | 1.06 to 6.36 | 9.27 to 11.9 | < 1.06 | 6.36 to 9.27 | 6.36 to 9.27 | > 11.9
COc1ccc(Nc2ncnc(N3CCCc4ccc(C(F)(F)F)cc43)n2)cc1OC [Compound 535] | > 10.4 | < 0.927 | 5.56 to 8.11 | > 10.4 | < 0.927 | 0.927 to 5.56 | > 10.4 | > 10.4 | 0.927 to 5.56 | 0.927 to 5.56 | 
Cc1cccc(Nc2ncnc(N(C)c3cccc(Cl)c3)n2)c1 [Compound 709] | > 13.8 | 1.23 to 7.37 | 7.37 to 10.7 | > 13.8 | < 1.23 | > 13.8 | > 13.8 | > 13.8 | 1.23 to 7.37 | 7.37 to 10.7 | 
Cc1ccc2c(c1)CCCN2c1ncnc(Nc2ccc3c(c2)C(=O)OC3)n1 [Compound 763] | > 12.1 | 1.07 to 6.43 | 6.43 to 9.37 | > 12.1 | < 1.07 | 1.07 to 6.43 | > 12.1 | > 12.1 | 1.07 to 6.43 | 6.43 to 9.37 | 
